“And” between values parts separate entries of the source, which are not always exact repeats. Identical values can stand only once. Toxic doses and inconclusive results are not listed.
Tested on: L1210 leukemia ip in BDF1 mice, survival T/C
Test: NCI In Vivo Anticancer Drug Screen. Data for tumor model L1210 Leukemia (intraperitoneal) in B6D2F1 (BDF1) mice
Conditions: endpoint: mean survival time, higher = longer survival
Summary of the method: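 In this screen, tumor-bearing mice given compound are compared to those given vehicle, and their survival values are reported as a treated-to-control quotient.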

[1] = dose: 100.0 mg/kg/injection, schedule: Q04DX003 (ip), vehicle: other
[2] = dose: 200.0 mg/kg/injection, schedule: Q04DX003 (ip), vehicle: other
[3] = dose: 400.0 mg/kg/injection, schedule: Q04DX003 (ip), vehicle: other
[4] = dose: 100.0 mg/kg/injection, schedule: Q04DX003 (ip), vehicle: saline
[5] = dose: 200.0 mg/kg/injection, schedule: Q04DX003 (ip), vehicle: saline
[6] = dose: 100.0 mg/kg/injection, schedule: Q04DX002 (ip), vehicle: saline with Tween-80
[7] = dose: 100.0 mg/kg/injection, schedule: Q01DX009 (ip), vehicle: saline with Tween-80
[8] = dose: 200.0 mg/kg/injection, schedule: Q01DX009 (ip), vehicle: saline with Tween-80
[9] = dose: 100.0 mg/kg/injection, schedule: Q04DX003 (ip), vehicle: Klucel (hydroxypropylcellulose) (HPC)
[10] = dose: 200.0 mg/kg/injection, schedule: Q04DX003 (ip), vehicle: Klucel (hydroxypropylcellulose) (HPC)
[11] = dose: 50.0 mg/kg/injection, schedule: Q04DX003 (ip), vehicle: Klucel (hydroxypropylcellulose) (HPC)
[12] = dose: 100.0 mg/kg/injection, schedule: Q01DX009 (ip), vehicle: Klucel (hydroxypropylcellulose) (HPC)
[13] = dose: 200.0 mg/kg/injection, schedule: Q01DX009 (ip), vehicle: Klucel (hydroxypropylcellulose) (HPC)

O=[N+]([O-])c1ccc(Oc2cc(Cl)c(Cl)cc2Cl)c([N+](=O)[O-])c1
T/C (dose: 100.0 mg/kg/injection, schedule: Q01DX001 (ip), vehicle: other): 90 % of control
T/C [1]: 98 % of control
T/C (dose: 200.0 mg/kg/injection, schedule: Q01DX001 (ip), vehicle: other): 92 % of control
T/C [2]: 95 % of control
T/C (dose: 222.0 mg/kg/injection, schedule: Q01DX Z (ip), vehicle: methylcellulose (MC)): 100 % of control
T/C (dose: 333.0 mg/kg/injection, schedule: Q01DX Z (ip), vehicle: methylcellulose (MC)): 91 % of control
T/C (dose: 400.0 mg/kg/injection, schedule: Q01DX001 (ip), vehicle: other): 89 % of control and 91 % of control
T/C [3]: 95 % of control
T/C (dose: 500.0 mg/kg/injection, schedule: Q01DX Z (ip), vehicle: methylcellulose (MC)): 91 % of control

CCC1CCC(N)CC1 (stereo not drawn)
T/C (dose: 75.0 mg/kg/injection, schedule: Q01DX001 (ip), vehicle: saline): 100 % of control

Nc1cc(F)c2c(c1)Cc1cc(F)ccc1-2
T/C (dose: 50.0 mg/kg/injection, schedule: Q01DX001 (ip), vehicle: carboxymethylcellulose (CMC)): 101 % of control
T/C (dose: 100.0 mg/kg/injection, schedule: Q01DX001 (ip), vehicle: carboxymethylcellulose (CMC)): 109 % of control
T/C (dose: 200.0 mg/kg/injection, schedule: Q01DX001 (ip), vehicle: carboxymethylcellulose (CMC)): 95 % of control

CCCCNC(=O)c1ccccc1N
T/C (dose: 50.0 mg/kg/injection, schedule: Q04DX003 (ip), vehicle: other): 103 % of control
T/C [1]: 95 % of control and 101 % of control
T/C [2]: 92 % of control
T/C [3]: 90 % of control

O=C(SCc1ccccc1)C(O)c1ccccc1 (stereo not drawn)
T/C [4]: 94 % of control
T/C [5]: 100 % of control
T/C (dose: 400.0 mg/kg/injection, schedule: Q04DX003 (ip), vehicle: saline): 97 % of control

O=C(Oc1ccc([N+](=O)[O-])cc1)c1ccc(CBr)cc1
T/C (dose: 50.0 mg/kg/injection, schedule: Q01DX009 (ip), vehicle: saline): 104 % of control
T/C (dose: 100.0 mg/kg/injection, schedule: Q01DX009 (ip), vehicle: saline): 102 % of control
T/C [4]: 94 % of control
T/C (dose: 200.0 mg/kg/injection, schedule: Q01DX009 (ip), vehicle: saline): 94 % of control
T/C [5]: 94 % of control

O=C(O)c1cocc1C(=O)O
T/C (dose: 100.0 mg/kg/injection, schedule: Q04DX002 (ip), vehicle: Klucel (hydroxypropylcellulose) (HPC)): 91 % of control
T/C (dose: 200.0 mg/kg/injection, schedule: Q04DX002 (ip), vehicle: Klucel (hydroxypropylcellulose) (HPC)): 91 % of control

CC12CCC(OC3OC(CO)C(OC4OC(CO)C(O)C(O)C4O)C(O)C3O)CC1CCC1C2CCC2(C)C(C3=CC(=O)OC3)CCC12O (stereo not drawn)
T/C (dose: 10.0 mg/kg/injection, schedule: Q01DX009 (ip), vehicle: saline): 102 % of control
T/C (dose: 20.0 mg/kg/injection, schedule: Q01DX009 (ip), vehicle: saline): 116 % of control
T/C (dose: 40.0 mg/kg/injection, schedule: Q01DX009 (ip), vehicle: saline): 102 % of control

N#C/C(=C\C1CCC(OCC2CCCCC2)CC1)C1CCC([N+](=O)[O-])CC1 (stereo not drawn)
T/C (dose: 25.0 mg/kg/injection, schedule: Q04DX002 (ip), vehicle: saline with Tween-80): 97 % of control
T/C (dose: 50.0 mg/kg/injection, schedule: Q04DX002 (ip), vehicle: saline with Tween-80): 102 % of control
T/C [6]: 100 % of control and 91 % of control

CCOC(=O)c1ccc(NC(=O)N(C2CCCCC2)C2CCCCC2)cc1
T/C (dose: 100.0 mg/kg/injection, schedule: Q01DX001 (ip), vehicle: saline with Tween-80): 86 % of control
T/C [7]: 101 % of control
T/C [6]: 103 % of control and 90 % of control
T/C (dose: 200.0 mg/kg/injection, schedule: Q01DX001 (ip), vehicle: saline with Tween-80): 86 % of control
T/C [8]: 92 % of control
T/C (dose: 200.0 mg/kg/injection, schedule: Q04DX002 (ip), vehicle: saline with Tween-80): 94 % of control
T/C (dose: 200.0 mg/kg/injection, schedule: Q04DX003 (ip), vehicle: saline with Tween-80): 94 % of control
T/C (dose: 400.0 mg/kg/injection, schedule: Q01DX001 (ip), vehicle: saline with Tween-80): 93 % of control
T/C (dose: 400.0 mg/kg/injection, schedule: Q01DX009 (ip), vehicle: saline with Tween-80): 101 % of control
T/C (dose: 400.0 mg/kg/injection, schedule: Q04DX002 (ip), vehicle: saline with Tween-80): 94 % of control and 90 % of control
T/C (dose: 400.0 mg/kg/injection, schedule: Q04DX003 (ip), vehicle: saline with Tween-80): 91 % of control

c1ccc(N=Nc2ccc(NC3=NCCO3)cc2)cc1
T/C [9]: 95 % of control
T/C [10]: 98 % of control

CC(C)C1CCC(NC(=O)N(CCF)N=O)CC1 (stereo not drawn)
T/C (dose: 9.5 mg/kg/injection, schedule: Q01DX001 (ip), vehicle: other): 108 % of control
T/C (dose: 23.0 mg/kg/injection, schedule: Q01DX001 (ip), vehicle: other): 165 % of control
T/C (dose: 30.0 mg/kg/injection, schedule: Q01DX001 (ip), vehicle: other): 187 % of control
T/C (dose: 38.0 mg/kg/injection, schedule: Q01DX001 (ip), vehicle: other): 209 % of control
T/C (dose: 46.0 mg/kg/injection, schedule: Q01DX001 (ip), vehicle: other): 212 % of control
T/C (dose: 62.0 mg/kg/injection, schedule: Q01DX001 (ip), vehicle: other): 312 % of control

CN(N)P(=O)(Nc1ccccc1)Nc1ccccc1
T/C [11]: 98 % of control
T/C (dose: 75.0 mg/kg/injection, schedule: Q01DX009 (ip), vehicle: Klucel (hydroxypropylcellulose) (HPC)): 102 % of control
T/C [9]: 91 % of control
T/C (dose: 150.0 mg/kg/injection, schedule: Q01DX009 (ip), vehicle: Klucel (hydroxypropylcellulose) (HPC)): 115 % of control
T/C [10]: 96 % of control
T/C (dose: 300.0 mg/kg/injection, schedule: Q01DX009 (ip), vehicle: Klucel (hydroxypropylcellulose) (HPC)): 100 % of control

Cc1n(CCBr)c([N+](=O)[O-])c[n+]1C1N=C(c2ccccc2)c2cc(Cl)ccc2N(C)C1=O (stereo not drawn)
T/C (dose: 50.0 mg/kg/injection, schedule: Q01DX009 (ip), vehicle: Klucel (hydroxypropylcellulose) (HPC)): 89 % of control
T/C [12]: 89 % of control
T/C [13]: 86 % of control

CCCCC1(C2CCCC2)NC(C)(C)CC(C)O1 (stereo not drawn)
T/C [7]: 95 % of control
T/C [8]: 104 % of control

O=c1[nH]cc([N+](=O)[O-])c(=O)[nH]1
T/C (dose: 100.0 mg/kg/injection, schedule: Q04DX002 (ip), vehicle: saline): 100 % of control
T/C (dose: 200.0 mg/kg/injection, schedule: Q04DX002 (ip), vehicle: saline): 106 % of control
T/C (dose: 400.0 mg/kg/injection, schedule: Q04DX002 (ip), vehicle: saline): 95 % of control

Cc1cccc([N+](=O)[O-])c1-c1ccccc1C(=O)O
T/C [11]: 88 % of control
T/C [12]: 93 % of control and 95 % of control
T/C [9]: 94 % of control
T/C [13]: 96 % of control and 103 % of control
T/C [10]: 100 % of control
T/C (dose: 400.0 mg/kg/injection, schedule: Q01DX009 (ip), vehicle: Klucel (hydroxypropylcellulose) (HPC)): 97 % of control

O=C1Cc2ccccc2O1
T/C (dose: 50.0 mg/kg/injection, schedule: Q01DX009 (ip), vehicle: saline with Tween-80): 101 % of control
T/C [7]: 96 % of control

Cn1c(=O)c2c(nc(CCCCCCCc3nc4c(c(=O)n(C)c(=O)n4C)n3C)n2C)n(C)c1=O
T/C (dose: 100.0 mg/kg/injection, schedule: Q01DX001 (ip), vehicle: saline): 98 % of control
T/C (dose: 200.0 mg/kg/injection, schedule: Q01DX001 (ip), vehicle: saline): 98 % of control
T/C (dose: 400.0 mg/kg/injection, schedule: Q01DX001 (ip), vehicle: saline): 98 % of control

O=C(Nc1ccnc(=O)[nH]1)c1ccccc1
T/C (dose: 100.0 mg/kg/injection, schedule: Q01DX001 (ip), vehicle: Klucel (hydroxypropylcellulose) (HPC)): 91 % of control
T/C (dose: 200.0 mg/kg/injection, schedule: Q01DX001 (ip), vehicle: Klucel (hydroxypropylcellulose) (HPC)): 100 % of control
T/C (dose: 400.0 mg/kg/injection, schedule: Q01DX001 (ip), vehicle: Klucel (hydroxypropylcellulose) (HPC)): 92 % of control

O=C(CCCCCCC(=O)C[n+]1ccccc1Br)C[n+]1ccccc1Br
T/C (dose: 1.4 mg/kg/injection, schedule: Q04DX003 (ip), vehicle: saline): 105 % of control
T/C (dose: 2.8 mg/kg/injection, schedule: Q04DX003 (ip), vehicle: saline): 100 % of control
T/C (dose: 5.6 mg/kg/injection, schedule: Q04DX003 (ip), vehicle: saline): 97 % of control
